US20160046618A1, “Cyclopropyl Fused Thiazin-2-Amine Compounds as Beta-Secretase Inhibitors and Methods of Use” (AMGEN INC., priority 2014, published 2016)

What was measured:
Recombinant Cat D = Recombinant Cat D (Homo sapiens (Human), UniProt P07339); assay: In vitro enzymatic Cathepsin D (Cat D) FRET assay; format: biochemical; conditions: read-out: IC50 IP (μM) CatD
Summary of the method: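 Assay pH is 3.5 (0.05 M citrate, 5 mM CHAPS, 10% DMSO final) with Cat D from CHO cells. A 20 nM quenched peptide substrate is cleaved over one hour; the reaction is ended with Tris and read by fluorescence (ex 500, em 580 nm).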

[1] = tested on: Aβ40 in conditioned medium of cells stably expressing Amyloid Precursor Protein (APP); assay: In vitro BACE-1 cell-based assay (Aβ40 sandwich ELISA); conditions: read-out: IC50 IP (μM) BACE1 cell
Summary of the method: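 Aβ40 in supernatants measured by time-resolved fluorescence sandwich ELISA, with pAb40 as capture and biotin-6E10 as detector antibody, each incubated at 4 °C.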

human recombinant BACE2 = human recombinant BACE2 (Homo sapiens (Human), UniProt Q9Y5Z0); assay: In vitro enzymatic BACE2 FRET assay; format: biochemical; conditions: read-out: IC50 IP (μM) BACE2 enzyme
Sequence of human recombinant BACE2 (Q9Y5Z0 63-518): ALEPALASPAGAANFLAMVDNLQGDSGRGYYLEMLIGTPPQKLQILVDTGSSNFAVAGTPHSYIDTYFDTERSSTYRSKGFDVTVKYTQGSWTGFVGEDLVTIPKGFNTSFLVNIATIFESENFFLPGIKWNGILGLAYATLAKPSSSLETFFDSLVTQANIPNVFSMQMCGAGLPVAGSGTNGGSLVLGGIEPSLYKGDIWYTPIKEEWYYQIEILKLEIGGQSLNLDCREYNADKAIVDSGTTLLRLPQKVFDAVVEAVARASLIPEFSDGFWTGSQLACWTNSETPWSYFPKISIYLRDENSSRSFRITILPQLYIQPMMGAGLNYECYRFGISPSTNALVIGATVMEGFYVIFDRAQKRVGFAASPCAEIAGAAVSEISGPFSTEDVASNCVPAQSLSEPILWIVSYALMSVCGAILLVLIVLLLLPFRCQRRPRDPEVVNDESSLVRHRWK
Summary of the method: (§1)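 Reactions were initiated by adding 50 nM of a peptide carrying fluorophore and quencher on opposite sides of the cleavage site and ran for one hour. Tris buffer then brought the pH to neutrality, ending the reaction, and fluorescence was measured (488 nm excitation, 590 nm emission).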

human recombinant BACE1 = human recombinant BACE1 (Homo sapiens (Human), UniProt P56817); assay: In vitro enzymatic BACE1 FRET assay; format: biochemical; conditions: read-out: IC50 IP (μM) BACE1 enzyme
Sequence of human recombinant BACE1 (P56817 46-501): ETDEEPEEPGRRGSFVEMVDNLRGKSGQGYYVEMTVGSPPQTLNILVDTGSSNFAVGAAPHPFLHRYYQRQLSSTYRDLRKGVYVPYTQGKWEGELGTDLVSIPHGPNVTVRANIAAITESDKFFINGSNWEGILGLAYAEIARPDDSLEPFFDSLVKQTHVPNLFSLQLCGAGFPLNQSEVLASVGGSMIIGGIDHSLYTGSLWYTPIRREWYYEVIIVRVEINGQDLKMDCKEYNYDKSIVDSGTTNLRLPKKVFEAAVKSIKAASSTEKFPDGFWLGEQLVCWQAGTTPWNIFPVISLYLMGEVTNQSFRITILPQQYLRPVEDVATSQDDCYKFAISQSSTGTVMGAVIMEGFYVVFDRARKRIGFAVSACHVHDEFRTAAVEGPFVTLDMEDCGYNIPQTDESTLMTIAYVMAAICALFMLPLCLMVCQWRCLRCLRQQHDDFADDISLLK
Summary of the method: as §1

Sequence of Recombinant Cat D (P07339 65-412): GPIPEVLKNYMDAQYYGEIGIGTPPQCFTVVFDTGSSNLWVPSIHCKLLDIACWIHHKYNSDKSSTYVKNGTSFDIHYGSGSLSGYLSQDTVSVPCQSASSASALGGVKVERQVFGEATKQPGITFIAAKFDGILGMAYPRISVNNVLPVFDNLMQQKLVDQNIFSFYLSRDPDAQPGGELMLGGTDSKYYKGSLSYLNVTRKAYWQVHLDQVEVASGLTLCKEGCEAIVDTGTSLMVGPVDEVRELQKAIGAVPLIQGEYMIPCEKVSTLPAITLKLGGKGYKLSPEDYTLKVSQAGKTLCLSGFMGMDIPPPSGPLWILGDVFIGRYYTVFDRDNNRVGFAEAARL

Row | Structure (SMILES) | IC50 (Recombinant Cat D) | IC50 [1] | IC50 (human recombinant BACE2) | IC50 (human recombinant BACE1)
1 | COC[C@H](C)Oc1cnc(C(=O)Nc2ccc(F)c([C@@]3(C)N=C(N)S[C@@]4(C(F)F)C[C@@H]34)c2)cn1 [Example 971, N-(3-((1S,5S,6S)-3-amino-1-(difluoromethyl)-5-methyl-2-thia-4-azabicyclo[4.1.0]hept-3-en-5-yl)-4-fluorophenyl)-5-((1S)-2-methoxy-1-methylethoxy)-2-pyrazinecarboxamide] | 611 µM | 0.0185 µM | 0.38 µM | 0.00522 µM
2 | C[C@]1(c2cc(NC(=O)c3cnc(OCc4ncco4)cn3)cc(F)c2F)N=C(N)S[C@@]2(CF)C[C@H]21 [Example 811, N-(3-((1S,5S,6S)-3-amino-1-(fluoromethyl)-5-methyl-2-thia-4-azabicyclo[4.1.0]hept-3-en-5-yl)-4,5-difluorophenyl)-5-(1,3-oxazol-2-ylmethoxy)-2-pyrazinecarboxamide] | 297 µM | 0.00126 µM | 0.0207 µM | 0.000676 µM
3 | C#CCOc1cnc(C(=O)Nc2cc(F)c(F)c([C@@]3(C)N=C(N)S[C@@]4(CNC(=O)OC(C)(C)C)C[C@H]43)c2)cn1 [Example 980, tert-butyl(((1S,5S,6S)-3-amino-5-(2,3-difluoro-5-(5-(prop-2-yn-1-yloxy)pyrazine-2-carboxamido)phenyl)-5-methyl-2-thia-4-azabicyclo[4.1.0]hept-3-en-1-yl)methyl)carbamate] | 19.8 µM | 0.000747 µM | 0.013 µM | 0.000455 µM
4 | C[C@]1(c2cc(Nc3ncnc4cc(OCc5ncco5)cnc34)cnc2F)N=C(N)S[C@@]2(CF)C[C@H]21 [Example 605, N-(5-((1S,5S,6S)-3-amino-1-(fluoromethyl)-5-methyl-2-thia-4-azabicyclo[4.1.0]hept-3-en-5-yl)-6-fluoro-3-pyridinyl)-7-(1,3-oxazol-2-ylmethoxy)pyrido[3,2-d]pyrimidin-4-amine] | 1290 µM | 0.00149 µM | 0.114 µM | 0.00178 µM
5 | COC[C@]12C[C@H]1[C@@](C)(c1cc(Nc3ncnc4cc(Cl)cnc34)cnc1F)N=C(N)S2 [Example 844, (1S,5S,6S)-5-(5-((7-chloropyrido[3,2-d]pyrimidin-4-yl)amino)-2-fluoropyridin-3-yl)-1-(methoxymethyl)-5-methyl-2-thia-4-azabicyclo[4.1.0]hept-3-en-3-amine] | 1780 µM | 0.0145 µM | 0.0108 µM | 0.0219 µM
6 | C#CCOc1cnc2c(Nc3ccc(F)c([C@@]4(CF)N=C(N)S[C@@]5(/C=C/C(=O)N6CC(F)(F)C6)C[C@H]54)c3)nccc2n1 [Example 773, N-(3-((1R,5S,6S)-3-amino-1-((1E)-3-(3,3-difluoro-1-azetidinyl)-3-oxo-1-propen-1-yl)-5-(fluoromethyl)-2-thia-4-azabicyclo[4.1.0]hept-3-en-5-yl)-4-fluorophenyl)-2-(2-propyn-1-yloxy)pyrido[3,4-b]pyrazin-5-amine] | 113 µM | 0.00148 µM | < 0.00203 µM | 0.000423 µM
7 | CNC(=O)[C@]12C[C@H]1[C@@](C)(c1cc(NC(=O)c3cnc(OCC(F)(F)F)cn3)ccc1F)N=C(N)S2 [Example 973, (1S,5S,6S)-3-amino-5-(2-fluoro-5-(5-(2,2,2-trifluoroethoxy)pyrazine-2-carboxamido)phenyl)-N,5-dimethyl-2-thia-4-azabicyclo[4.1.0]hept-3-ene-1-carboxamide] | 1570 µM | 0.00192 µM | 0.0476 µM | 0.000404 µM
8 | C[C@]1(c2cc(NC(=O)c3ccc(OCC(F)(F)F)cn3)cc(F)c2F)N=C(N)S[C@@]2(C#N)C[C@H]21 [Example 1012, N-(3-((1S,5S,6S)-3-amino-1-cyano-5-methyl-2-thia-4-azabicyclo[4.1.0]hept-3-en-5-yl)-4,5-difluorophenyl)-5-(2,2,2-trifluoroethoxy)-2-pyridinecarboxamide] | > 400 µM | 0.111 µM | 0.095 µM | 0.00399 µM

Results, then the compound that gave them:

Row | IC50 (Recombinant Cat D) | IC50 [1] | IC50 (human recombinant BACE2) | IC50 (human recombinant BACE1) | Structure (SMILES)
9 | 1020 µM | 0.0557 µM | 0.0161 µM | 0.00606 µM | COC[C@]12C[C@H]1[C@@](C)(c1cc(NC(=O)c3ncc(OCC(F)(F)F)nc3C)cc(F)c1F)N=C(N)S2 [Example 618, N-(3-((1S,5S,6S)-3-amino-1-(methoxymethyl)-5-methyl-2-thia-4-azabicyclo[4.1.0]hept-3-en-5-yl)-4,5-difluorophenyl)-3-methyl-5-(2,2,2-trifluoroethoxy)-2-pyrazinecarboxamide]
10 | > 400 µM | 0.00686 µM | 0.185 µM | 0.00497 µM | Cc1cc(OCC(F)(F)F)cnc1C(=O)Nc1cc(F)c(F)c([C@@]2(C)N=C(N)S[C@@]3(C#N)C[C@H]32)c1 [Example 1015, N-(3-((1S,5S,6S)-3-amino-1-cyano-5-methyl-2-thia-4-azabicyclo[4.1.0]hept-3-en-5-yl)-4,5-difluorophenyl)-3-methyl-5-(2,2,2-trifluoroethoxy)-2-pyridinecarboxamide]
11 | 1910 µM | 0.00675 µM | 0.00955 µM | 0.0113 µM | COC[C@]12C[C@H]1[C@@](C)(c1cc(Nc3nccc4cc(C#N)cnc34)cnc1F)N=C(N)S2 [Example 847, 8-((5-((1S,5S,6S)-3-amino-1-(methoxymethyl)-5-methyl-2-thia-4-azabicyclo[4.1.0]hept-3-en-5-yl)-6-fluoro-3-pyridinyl)amino)-1,7-naphthyridine-3-carbonitrile]
12 | 1110 µM | 0.0193 µM | 0.27 µM | 0.00452 µM | Cc1noc(COc2cnc3c(Nc4ccc(F)c([C@@]5(CF)N=C(N)S[C@@]6(CF)C[C@H]65)c4)nccc3n2)n1 [Example 880, N-(3-((1S,5S,6S)-3-amino-1,5-bis(fluoromethyl)-2-thia-4-azabicyclo[4.1.0]hept-3-en-5-yl)-4-fluorophenyl)-2-((3-methyl-1,2,4-oxadiazol-5-yl)methoxy)pyrido[3,4-b]pyrazin-5-amine]
13 | 590 µM | 0.000762 µM | 0.0194 µM | 0.000799 µM | C#CCOc1cnc(C(=O)Nc2cnc(F)c([C@@]3(C)N=C(N)S[C@@]4(COC)C[C@H]43)c2)cn1 [Example 859, N-(5-((1S,5S,6S)-3-amino-1-(methoxymethyl)-5-methyl-2-thia-4-azabicyclo[4.1.0]hept-3-en-5-yl)-6-fluoro-3-pyridinyl)-5-(2-propyn-1-yloxy)-2-pyrazinecarboxamide]
14 | 211 µM | 0.00113 µM | 0.00651 µM | 0.00116 µM | CC(C)(CF)NC(=O)[C@]12C[C@H]1[C@@](C)(c1cc(NC(=O)c3ccc(C#N)cn3)ccc1F)N=C(N)S2 [Example 1018, (1S,5S,6S)-3-amino-5-(5-(5-cyanopicolinamido)-2-fluorophenyl)-N-(1-fluoro-2-methylpropan-2-yl)-5-methyl-2-thia-4-azabicyclo[4.1.0]hept-3-ene-1-carboxamide]
15 | 2290 µM | 0.00431 µM | 0.00196 µM | 0.00216 µM | COC[C@]12C[C@H]1[C@@](CF)(c1cc(NC(=O)c3ncc(C#N)cc3C)ccc1F)N=C(N)S2 [Example 716, N-(3-((1S,5S,6S)-3-amino-5-(fluoromethyl)-1-(methoxymethyl)-2-thia-4-azabicyclo[4.1.0]hept-3-en-5-yl)-4-fluorophenyl)-5-cyano-3-methyl-2-pyridinecarboxamide]
